IC50 data for two compounds are collected here from BindingDB's records for doi:10.1016/j.bmc.2014.03.018 (Deakin University, 2014).

The nature of this test: Antagonist activity at androgen receptor in human LNCAP cells assessed as inhibition of androgen-stimulated cell growth measured every 3 days.

In the case of `CC(C)(O)c1cn(-c2ccc([N+](=O)[O-])c(C(F)(F)F)c2)nn1`, the IC50 is 45 µM.

On to `CC(C)(O)c1cn(-c2ccc(Cl)c(C(F)(F)F)c2)nn1`, for which the IC50 amounted to 49 µM.

As a reminder, the IC50 is the concentration that inhibits the measured activity by half.
